Measurements as given in patent publication US9492426B2, “Mycophenolic acid analogues as anti-tumor chemosensitizing agents” (Texas A & M University System, priority 2011, dated 2016).
Read-outs that look alike come from different tables or passages of the source.

Tests used:
[1] = test system: MDA-MB-231 cells; assay: BrdU labeling (cell proliferation) in MDA-MB-231 cells; type: cell-based, human; details: 5-FU 0.15 ug/ml alone or MPA 0.19 uM alone
Method: Primary antibodies used for immunofluorescence included rabbit anti-NS (Ab138, Cocalico), rat anti-BrdU (BU1/75, Accurate), and mouse anti-fibrillarin (38F3, EnCor) antibodies. To measure cell proliferation, cultures were treated with bromodeoxyuridine (BrdU, Accurate, OBT0030) 1 hour before harvest.

[2] = test system: pre-rRNA transcripts; assay: Real-time RT-PCR of pre-rRNA transcripts; type: cell-based
Method: The AC(t) values between the target message and two reference messages (HMG-14 and […]) were determined using the MyiQ single-color real-time PCR detection system and supermix SYBR green reagent. The AAC(t) values were measured from two biological replicates and two technical repeats (n=4). Primer sequences are: SJ1, 5′-[…]-3′ and 5′-[…]-3′; SJ2, 5′-[…]-3′ and 5′-[…]-3′; SJ3, 5′-[…]-3′ and 5′-[…]-3′; and 18S, 5′-[…]-3′ and 5′-[…]-3′.
The anti-tumor activity of MPA has been linked to nucleolar stress. To investigate whether the synergy of MPA on 5-FU is related to nucleolar stress, Applicants tested the anti-tumor effect of 5-FU in combination with two inhibitors (actinomycin D [AMD] and ADR). Both drugs trigger nucleolar disassembly, but differ in that low-dose AMD (0.05 ug/ml) inhibits the activity of RNA polymerase-I, whereas ADR (2 uM) inhibits the activity of RNA polymerase-II. […] To determine how 5-FU and MPA affect the synthesis or processing of pre-rRNAs, Applicants used real-time RT-PCR to measure the amounts of rRNA transcripts with the splice junction-1 (SJ-1), SJ-2, SJ-3, and 18S rRNA sequences (FIG. 3B). […] By contrast, 5-FU alone increases 47S pre-rRNA and decreases the amount of SJ-3-containing transcripts.

[3] = test system: nucleostemin; assay: Nucleostemin protein level in MDA-MB-231 cells; type: cell-based, human
Description: To test the idea that nucleostemin may be involved in mediating the synergy between MPA and 5-FU, Applicants first confirmed that MPA treatment decreases the protein level of endogenous nucleostemin but not that of GNL3L and Ngp-1, the two nucleostemin homologues in vertebrate (FIG. 4A). […] Applicants noted that cells in the three control groups appear to be more resistant to the 5-FU/MPA-combined treatment than to the parental MDA-MB-231 cells, which may be caused by the G418/puromycin drug selection process.

[4] = test system: dysplastic oral keratinocyte (DOK) cells; assay: Growth inhibition (IC50) and combination index in dysplastic oral keratinocyte cells; type: cell-based; details: single agent, read-out: IC50 concentration
Method: Cells were plated in 96-well plates for one day and received drug treatments for 3 days. The plating cell densities were 2,000 cells/well for human cancer cell lines, 3,000 cells/well for tumor sphere cells, and 10,000 cells/well for primary tumor cells. Following the addition of MTT solutions (10 μl, 5 mg/ml), cells were incubated for 4 hours to allow MTT to be metabolized to formazan. Formazan was then dissolved in DMSO and measured by spectrophotometer at 560 nm.
The tumor growth-inhibitory curves of individual drugs were first measured by the MTT assay over a range of five concentrations with three-fold increment. The half-inhibitory concentrations (IC50) were calculated by Calcusyn program (Biosoft, Ferguson, Mo.). The combined effects were measured by mixing two drugs at the 4:1, 2:1, 1:1, 1:2, or 1:4 ratio of their respective IC50 concentrations. Each combination was tested for its tumor growth-inhibitory effect over a range of five different dosages, and calculated for its CI using the Calcusyn program.

COc1c(C)c2c(c(O)c1C/C=C(\C)CCC(=O)O)C(=O)OC2 [MPA, mycophenolic acid]
proliferative rate (BrdU labeling) [1]: does not decrease
amount of pre-rRNA transcripts (SJ-1, SJ-2, SJ-3, 18S), including 47S pre-rRNA [2]: decrease the amount of pre-rRNA transcripts
protein level of endogenous nucleostemin [3]: decreases
IC50 ([4]; Keratinocyte): 6670 nM

O=C1[O][Pt]2([NH][C@@H]3CCCC[C@H]3[NH]2)[O]C1=O [oxaliplatin]
IC50 [4]: 830 nM

O=c1[nH]cc(F)c(=O)[nH]1 [5-FU, 5-fluorouracil]
proliferative rate (BrdU labeling) [1]: does not decrease
47S pre-rRNA [2]: increases
amount of SJ-3-containing transcripts [2]: decreases
IC50 ([4]; Keratinocyte): 1.67 µg/mL

CC(=O)O[C@H]1C(=O)[C@@]2(C)[C@H]([C@H](OC(=O)c3ccccc3)[C@]3(O)C[C@H](OC(=O)[C@H](O)[C@@H](NC(=O)c4ccccc4)c4ccccc4)C(C)=C1C3(C)C)[C@]1(OC(C)=O)CO[C@@H]1C[C@@H]2O [paclitaxel]
IC50 ([4]; Keratinocyte): 210 nM
